The results in this text go back to patent US20240174680A1, “CDK2 INHIBITORS AND METHODS OF USING THE SAME” (Cedilla Therapeutics, Inc., priority 2021, published 2024).

The assay addresses CDK2/Cyclin E1 (Homo sapiens, UniProt P24941). Briefly: CDK2/Cyclin E1 Caliper LabChip EZ Reader mobility shift assay. Type of assay: biochemical. On the set-up: purchased Eurofins 14-475. The note with it: read-out: Caliper Assay (CDK2/CCNE1): IC50. The procedure: Inhibition of CDK2/Cyclin E1 activity in the presence of compounds of the present disclosure was evaluated using a Caliper LabChip® EZ Reader mobility shift assay. In the assay, CDK2/Cyclin E1 (Eurofins, 14-475) catalyzed the phosphorylation of a fluorescently tagged peptide 5-FAM-QSPKKG-CONH2 (PerkinElmer, FL Peptide 18) which induced a difference in capillary electrophoresis mobility. The peptide substrate and product were measured, and the conversion ratio was used to determine the inhibition (as % activity and IC50 values) of CDK2/Cyclin E1. Reactions contained 50 mM HEPES pH 7.5, 10 mM MgCl2, 1 mM EDTA, 2 mM DTT, 0.01% Brij35, 0.5 mg/mL BSA, 0.1% DMSO, 2.5 nM CDK2/Cyclin E1, 100 μM ATP, and 1.5 μM fluorescent peptide substrate.
Dose titrations of inhibitors in 100% DMSO were combined with 3.25 nM CDK2/Cyclin E1 and 130 μM of ATP in reaction buffer. The mixtures were incubated for 30 minutes before the addition of fluorescent peptide substrate to initiate the kinase reaction. The final conditions were 2.5 nM CDK2/Cyclin E1, 100 μM ATP, and 1.5 μM fluorescent peptide. The reactions were stopped after 100 minutes with the addition of EDTA (400 mM final EDTA concentration). The stopped reactions were analyzed on a Caliper LabChip® EZ Reader II. The conversion ratios were normalized to yield % activity, plotted against compound concentration, and fit to a four-parameter equation to determine the IC50 for each compound.

Regarding `CNC(=O)[C@@H](NC(=O)[C@H]1CN(C(=O)c2cnn(CC(F)(F)F)c2)CC12CN(C(=O)CC1CC1)C2)[C@@H](C)OCc1ccccc1` [I-43B], the IC50 is greater than 10 µM.
In the case of `CNC(=O)[C@@H](NC(=O)[C@@H]1CN(C(=O)c2cnc[nH]2)CC12CN(C(=O)[C@H]1CC1(C)C)C2)[C@@H](C)OCc1ccccc1` [I-44A] it was greater than 10 µM; in that of `CNC(=O)[C@@H](NC(=O)[C@H]1CN(C(=O)c2cnc[nH]2)CC12CN(C(=O)[C@H]1CC1(C)C)C2)[C@@H](C)OCc1ccccc1` [I-44B], greater than 10 µM; in that of `CNC(=O)[C@@H](NC(=O)[C@@H]1CN(C(=O)c2ccccn2)CC12CN(C(=O)[C@H]1CC1(C)C)C2)[C@@H](C)OCc1ccccc1` [I-45A], greater than 10 µM.
In the case of `CNC(=O)[C@@H](NC(=O)[C@H]1CN(C(=O)c2ccccn2)CC12CN(C(=O)[C@H]1CC1(C)C)C2)[C@@H](C)OCc1ccccc1` [I-45B] it was greater than 10 µM; in that of `CNC(=O)[C@@H](NC(=O)[C@@H]1CN(C(=O)c2ccncc2)CC12CN(C(=O)[C@H]1CC1(C)C)C2)[C@@H](C)OCc1ccccc1` [I-46A], greater than 10 µM.
In the case of `CNC(=O)[C@@H](NC(=O)[C@H]1CN(C(=O)c2ccncc2)CC12CN(C(=O)[C@H]1CC1(C)C)C2)[C@@H](C)OCc1ccccc1` [I-46B] it was greater than 10 µM; in that of `CNC(=O)[C@@H](NC(=O)[C@@H]1CN(Cc2cnn(C)c2)CC12CN(C(=O)[C@H]1CC1(C)C)C2)[C@@H](C)OCc1ccccc1` [I-47A], greater than 10 µM.
Consider `CNC(=O)[C@@H](NC(=O)[C@@H]1CN(C(=O)Nc2cnn(Cc3ccccc3)c2)CC12CN(C(=O)[C@H]1CC1(C)C)C2)[C@@H](C)OCc1ccccc1` [I-48A, (S)—N6-(1-benzyl-1H-pyrazol-4-yl)-N8-((2S,3R)-3-(benzyloxy)-1-(methylamino)-1-oxobutan-2-yl)-2-((S)-2,2-dimethylcyclopropane-1-carbonyl)-2,6-diazaspiro[3.4]octane-6,8-dicarboxamide], for which the IC50 is greater than 10 µM.
For the molecule `CNC(=O)[C@@H](NC(=O)[C@H]1CN(C(=O)Nc2cnn(Cc3ccccc3)c2)CC12CN(C(=O)[C@H]1CC1(C)C)C2)[C@@H](C)OCc1ccccc1` [I-48B], the IC50 is greater than 10 µM.
For the molecule `CNC(=O)[C@@H](NC(=O)[C@H]1CN(Cc2cccnc2)CC12CN(C(=O)[C@H]1CC1(C)C)C2)[C@@H](C)OCc1ccccc1` [I-49B], the IC50 was greater than 10 µM.
In the case of `CNC(=O)[C@@H](NC(=O)[C@@H]1CN(Cc2cn[nH]c2)CC12CN(C(=O)[C@H]1CC1(C)C)C2)[C@@H](C)OCc1ccccc1` [I-50A] it was greater than 10 µM.
As to `CNC(=O)[C@@H](NC(=O)[C@H]1CN(Cc2cn[nH]c2)CC12CN(C(=O)[C@H]1CC1(C)C)C2)[C@@H](C)OCc1ccccc1` [I-50B], the IC50 is greater than 10 µM.
In the case of `CNC(=O)[C@@H](NC(=O)[C@@H]1CN(Cc2cncs2)CC12CN(C(=O)[C@H]1CC1(C)C)C2)[C@@H](C)OCc1ccccc1` [I-51A] it was greater than 10 µM; in that of `CNC(=O)[C@@H](NC(=O)[C@H]1CN(Cc2cncs2)CC12CN(C(=O)[C@H]1CC1(C)C)C2)[C@@H](C)OCc1ccccc1` [I-51B], greater than 10 µM.
The result for `CNC(=O)[C@@H](NC(=O)[C@@H]1CN(C(=O)c2cnn(CC3CC3)c2)CC12CN(C(=O)CC1CC1)C2)[C@@H](C)OCc1ccccc1` [I-53A] reads greater than 10 µM; that for `CNC(=O)[C@@H](NC(=O)[C@H]1CN(C(=O)c2cnn(CC3CC3)c2)CC12CN(C(=O)CC1CC1)C2)[C@@H](C)OCc1ccccc1` [I-53B], greater than 10 µM; that for `CNC(=O)[C@@H](NC(=O)[C@@H]1CN(C(=O)c2cnn(Cc3ccccc3)c2)CC12CN(C(=O)C(C)C)C2)[C@@H](C)OCc1ccccc1` [I-54A], 0.1 to 1 µM.
Consider `CNC(=O)[C@@H](NC(=O)[C@H]1CN(C(=O)c2cnn(Cc3ccccc3)c2)CC12CN(C(=O)C(C)C)C2)[C@@H](C)OCc1ccccc1` [I-54B], for which the IC50 was greater than 10 µM.
The result for `CNC(=O)[C@@H](NC(=O)[C@@H]1CN(Cc2ccncc2)CC12CN(C(=O)[C@H]1CC1(C)C)C2)[C@@H](C)OCc1ccccc1` [I-55A] reads greater than 10 µM; that for `CNC(=O)[C@@H](NC(=O)[C@H]1CN(Cc2ccncc2)CC12CN(C(=O)[C@H]1CC1(C)C)C2)[C@@H](C)OCc1ccccc1` [I-55B], greater than 10 µM.
The result for `CNC(=O)[C@@H](NC(=O)[C@@H]1CN(C(=O)c2cnn(Cc3ccccc3)c2)CC12CN(C(=O)CC1CC1)C2)[C@@H](C)OCC1CCCCC1` [I-56A] reads 0.1 to 1 µM; that for `CNC(=O)[C@@H](NC(=O)[C@H]1CN(C(=O)c2cnn(Cc3ccccc3)c2)CC12CN(C(=O)CC1CC1)C2)[C@@H](C)OCC1CCCCC1` [I-56B], 1 to 10 µM; that for `CC1(C)C[C@@H]1C(=O)N1CC2(CN(C(=O)c3cnn(Cc4ccccc4)c3)C[C@H]2C(=O)N2CCC(Cc3ccccc3)CC2)C1` [I-58A], 0.1 to 1 µM.
In the case of `CC1(C)C[C@@H]1C(=O)N1CC2(CN(C(=O)c3cnn(Cc4ccccc4)c3)C[C@@H]2C(=O)N2CCC(Cc3ccccc3)CC2)C1` [I-58B] it was 1 to 10 µM.
In the case of `CC1(C)C[C@@H]1C(=O)N1CC2(CN(C(=O)c3cnn(Cc4ccccc4)c3)C[C@H]2C(=O)NC2CCCN(C(=O)c3ccccc3)C2)C1` (some centres unmarked) [I-59A], the IC50 was greater than 10 µM.
In the case of `CC1(C)C[C@@H]1C(=O)N1CC2(CN(C(=O)c3cnn(Cc4ccccc4)c3)C[C@@H]2C(=O)NC2CCCN(C(=O)c3ccccc3)C2)C1` (some centres unmarked) [I-59B] it was greater than 10 µM; in that of `CCCC(=O)N1CC2(C1)CN(C(=O)c1cnn(Cc3ccccc3)c1)C[C@H]2C(=O)N[C@H](C(=O)NC)[C@@H](C)OCc1ccccc1` [I-60A], 1 to 10 µM.
Take `CCCC(=O)N1CC2(C1)CN(C(=O)c1cnn(Cc3ccccc3)c1)C[C@@H]2C(=O)N[C@H](C(=O)NC)[C@@H](C)OCc1ccccc1` [I-60B]: the IC50 was greater than 10 µM.
The result for `CC1(C)C[C@@H]1C(=O)N1CC2(CN(C(=O)c3cnn(Cc4ccccc4)c3)C[C@H]2C(=O)NC2CCN(C(=O)c3ccccc3)CC2)C1` [I-61A] reads 1 to 10 µM; that for `CC1(C)C[C@@H]1C(=O)N1CC2(CN(C(=O)c3cnn(Cc4ccccc4)c3)C[C@@H]2C(=O)NC2CCN(C(=O)c3ccccc3)CC2)C1` [I-61B], greater than 10 µM.
For the molecule `CNC(=O)[C@@H](NC(=O)[C@@H]1CN(C(=O)c2cnn(Cc3ccccc3)c2)CC12CN(C(=O)CC(C)(C)C)C2)[C@@H](C)OCc1ccccc1` [I-62A], the IC50 fell in the range of 0.1 to 1 µM.
On to `CNC(=O)[C@@H](NC(=O)[C@H]1CN(C(=O)c2cnn(Cc3ccccc3)c2)CC12CN(C(=O)CC(C)(C)C)C2)[C@@H](C)OCc1ccccc1` [I-62B], for which the IC50 was greater than 10 µM.
In the case of `CC1(C)C[C@@H]1C(=O)N1CC2(CN(C(=O)c3cnn(Cc4ccccc4)c3)C[C@H]2C(=O)Nc2cccc(-c3ccccc3)c2)C1` [I-63A] it was 1 to 10 µM; in that of `CC1(C)C[C@@H]1C(=O)N1CC2(CN(C(=O)c3cnn(Cc4ccccc4)c3)C[C@@H]2C(=O)Nc2cccc(-c3ccccc3)c2)C1` [I-63B], 1 to 10 µM; in that of `COCC1CCCN(C(=O)[C@@H](NC(=O)C2CN(C(=O)c3cnn(Cc4ccccc4)c3)CC23CN(C(=O)[C@H]2CC2(C)C)C3)[C@@H](C)OCc2ccccc2)C1` (some centres unmarked) [I-64], 0.01 to 0.1 µM.
In the case of `CNC(=O)[C@@H](NC(=O)[C@@H]1CN(C(=O)c2cnn(Cc3ccccc3)c2)CC12CN(C(=O)C(C)(C)C)C2)[C@@H](C)OCc1ccccc1` [I-65A] it was 0.01 to 0.1 µM.
In the case of `CNC(=O)[C@@H](NC(=O)[C@H]1CN(C(=O)c2cnn(Cc3ccccc3)c2)CC12CN(C(=O)C(C)(C)C)C2)[C@@H](C)OCc1ccccc1` [I-65B] it was greater than 10 µM; in that of `CNC(=O)[C@@H](NC(=O)[C@@H]1CN(C(=O)c2cn[nH]c2)CC12CN(C(=O)[C@H]1CC1(C)C)C2)[C@@H](C)OCC1CCCCC1` [I-66A, (S)—N-((2S,3R)-3-(cyclohexylmethoxy)-1-(methylamino)-1-oxobutan-2-yl)-2-((S)-2,2-dimethylcyclopropane-1-carbonyl)-6-(1H-pyrazole-4-carbonyl)-2,6-diazaspiro[3.4]octane-8-carboxamide], 0.01 to 0.1 µM; in that of `CNC(=O)[C@@H](NC(=O)[C@H]1CN(C(=O)c2cn[nH]c2)CC12CN(C(=O)[C@H]1CC1(C)C)C2)[C@@H](C)OCC1CCCCC1` [I-66B], 1 to 10 µM.
With `CNC(=O)[C@@H](NC(=O)[C@@H]1CN(C(=O)c2cnn(Cc3ccccc3)c2)CC12CN(C(=O)C1(C)CC1)C2)[C@@H](C)OCc1ccccc1` [I-67A, (S)-6-(1-benzyl-1H-pyrazole-4-carbonyl)-N-((2S,3R)-3-(benzyloxy)-1-(methylamino)-1-oxobutan-2-yl)-2-(1-methylcyclopropane-1-carbonyl)-2,6-diazaspiro[3.4]octane-8-carboxamide], the IC50 lay in the range of 0.1 to 1 µM.
`CNC(=O)[C@@H](NC(=O)[C@H]1CN(C(=O)c2cnn(Cc3ccccc3)c2)CC12CN(C(=O)C1(C)CC1)C2)[C@@H](C)OCc1ccccc1` [I-67B]: the IC50 is greater than 10 µM.
Regarding `CNC(=O)[C@@H](NC(=O)[C@@H]1CN(C(=O)c2cnn(Cc3ccccc3)c2)CC12CN(C(=O)CC(C)C)C2)[C@@H](C)OCc1ccccc1` [I-69A], the IC50 was in the range of 0.1 to 1 µM.
The result for `CNC(=O)[C@@H](NC(=O)[C@H]1CN(C(=O)c2cnn(Cc3ccccc3)c2)CC12CN(C(=O)CC(C)C)C2)[C@@H](C)OCc1ccccc1` [I-69B] reads greater than 10 µM.
